Calls of active or inactive are those of the source. The calls are words filed in the database; no cut-off is given here.
Columns and labels:
[1] = molecular target: Transcription factor p65 (Mus musculus) (UniProt Q04207); test: Inhibition of RANKL-induced p65 NF-kappaB phosphorylation in C57BL/6 mouse BMDM cells transfected with Nrf2 siRNA at 10 uM incubated for 60 mins by Western blot analysis; assay type: cell-based
BMDM [2] = test: Anti-osteoclastogenesis activity in RANKL-induced C57BL/6 mouse BMDM cells assessed as downregulation of MMP-9 mRNA expression at 5 to 10 uM by qRT-PCR analysis; assay type: functional, cell-based; settings: dose 5-10 µM
BMDM [3] = test: Inhibition of osteoclast migration in RANKL-induced C57BL/6 mouse BMDM cells at 10 uM incubated for 48 hrs in the presence of M-CSF by TRAP staining based wound healing assay; assay type: functional, cell-based
[4] = molecular target: Keap1/Nrf2 (Homo sapiens) (UniProt Q16236+Q14145); test: Disruption of 16mer biotinylated Nrf2 (unknown origin)-Keap1 kelch domain (unknown origin) protein-protein interaction upto 100 uM by Biolayer Interferometry assay
[5] = molecular target: Kelch-like ECH-associated protein 1 (Mus musculus) (UniProt Q9Z2X8); test: Binding affinity to Keap1 in mouse RAW264.7 cells assessed as thermal stability at 20 uM preincubated with compound for 1 hrs followed by heating at 37 to 65 degreeC for 3 mins by CETSA; assay type: cell-based; settings: time 63.0 min
Danio rerio = test: Anti osteoporosis activity in prednisone induced AB Zebrafish model of osteopenia assessed as increase in bone mineralization at 5 to 10 uM administered after 3 days post fertilization and measured after 6 days by Alizarin red staining based analysis; assay type: functional, organism-based; settings: dose 5-10 µM, time 6.0 day
BMDM [6] = test: Anti-osteoclastogenesis activity in RANKL-induced C57BL/6 mouse BMDM cells assessed as downregulation of NFATc1 mRNA expression at 5 to 10 uM by qRT-PCR analysis; assay type: functional, cell-based; settings: dose 5-10 µM
BMDM [7] = test: Anti-osteoclastogenesis activity in RANKL-induced C57BL/6 mouse BMDM cells assessed as increase in NQO-1 expression at 5 to 10 uM in the presence of M-CSF by Western blot analysis; assay type: functional, cell-based; settings: dose 5-10 µM
[8] = molecular target: T1, MAP kinase p38 (Mus musculus) (UniProt P47811+O08911+Q9WUI1+Q9Z1B7); test: Inhibition of RANKL-induced p38 MAPK phosphorylation in C57BL/6 mouse BMDM cells transfected with Nrf2 siRNA at 10 uM incubated for 60 mins by Western blot analysis; assay type: cell-based
[9] = molecular target: Transcription factor p65 (Mus musculus) (UniProt Q04207); test: Inhibition of RANKL-induced p65 NF-kappaB phosphorylation in C57BL/6 mouse BMDM cells incubated for 60 mins by Western blot analysis; assay type: cell-based
BMDM [10] = test: Anti-osteoclastogenesis activity in RANKL-induced C57BL/6 mouse BMDM cells assessed as elimination of TRAP-positive multinucleated osteoclast incubated for 7 days in the presence of M-CSF by TRAP-staining based microscopic analysis; assay type: functional, cell-based; settings: dose 1-10 µM, time 7.0 day
BMDM [11] = test: Anti-osteoclastogenesis activity in C57BL/6 mouse BMDM cells assessed as reduction in RANKL-induced ROS level at 5 to 10 uM incubated for 6 hrs by DCF-DA staining based fluorescence analysis; assay type: functional, cell-based; settings: dose 5-10 µM
[12] = molecular target: T2, Nuclear factor erythroid 2-related factor 2 (Mus musculus) (UniProt Q60795); test: Stabilization of Nrf2 in mouse RAW264.7 cells assessed as increase in Nrf2 protein level preincubated with compound for 6 hrs followed by CHX addition and measured after 45 mins by Western blot analysis; assay type: cell-based; settings: time 405.0 min
T2 sequence (whole entry): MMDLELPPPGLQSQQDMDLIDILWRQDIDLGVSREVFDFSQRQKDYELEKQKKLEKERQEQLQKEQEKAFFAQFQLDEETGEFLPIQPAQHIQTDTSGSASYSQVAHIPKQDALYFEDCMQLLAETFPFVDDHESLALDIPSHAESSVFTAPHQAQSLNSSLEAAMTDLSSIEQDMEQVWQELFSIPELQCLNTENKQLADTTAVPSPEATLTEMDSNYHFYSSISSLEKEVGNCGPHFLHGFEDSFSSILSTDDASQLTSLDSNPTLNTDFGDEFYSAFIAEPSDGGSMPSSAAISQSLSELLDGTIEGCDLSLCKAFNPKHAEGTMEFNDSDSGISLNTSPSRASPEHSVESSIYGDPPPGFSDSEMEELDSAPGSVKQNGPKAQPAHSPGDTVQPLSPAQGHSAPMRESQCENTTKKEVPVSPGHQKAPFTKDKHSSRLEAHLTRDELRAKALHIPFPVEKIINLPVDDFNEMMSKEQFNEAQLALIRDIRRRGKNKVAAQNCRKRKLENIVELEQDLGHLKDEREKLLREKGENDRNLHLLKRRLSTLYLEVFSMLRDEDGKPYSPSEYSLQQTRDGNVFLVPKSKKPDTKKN

RAW264.7 [13] = test: Anti-osteoclastogenesis activity in RANKL-induced mouse RAW264.7 cells transfected with Nrf2 siRNA assessed as increase in HO-1 expression level incubated for 3 days by Western blot analysis; assay type: functional, cell-based; settings: time 3.0 day
BMDM [14] = test: Anti-osteoclastogenesis activity in C57BL/6 mouse BMDM cells transfected with Nrf2 siRNA assessed as inhibition of RANKL-induced osteoclastogenesis at 10 uM incubated for 5 days in the presence of M-CSF by TRAP-staining based microscopic analysis; assay type: functional, cell-based; settings: time 5.0 day
[15] = molecular target: Kelch-like ECH-associated protein 1 (Homo sapiens, UniProt Q14145); test: Binding affinity to recombinant human Keap1 assessed as equilibrium dissociation constant by SPR analysis
[16] = Inhibition of RANKL-induced ERK phosphorylation in C57BL/6 mouse BMDM cells incubated for 60 mins by Western blot analysis; assay type: cell-based
[17] = molecular target: T1, MAP kinase p38 (Mus musculus); test: Inhibition of RANKL-induced p38 MAPK phosphorylation in C57BL/6 mouse BMDM cells incubated for 60 mins by Western blot analysis; assay type: cell-based
RAW264.7 [18] = test: Anti-osteoclastogenesis activity in RANKL-induced mouse RAW264.7 cells transfected with Nrf2 siRNA assessed as increase in NFATc1 expression level incubated for 3 days by Western blot analysis; assay type: functional, cell-based; settings: time 3.0 day
BMDM [19] = test: Anti-osteoclastogenesis activity in RANKL-induced C57BL/6 mouse BMDM cells assessed as downregulation of TRAP mRNA expression at 5 to 10 uM by qRT-PCR analysis; assay type: functional, cell-based; settings: dose 5-10 µM
BMDM [20] = test: Anti-osteoclastogenesis activity in RANKL-induced C57BL/6 mouse BMDM cells assessed as increase in HO-1 expression at 5 to 10 uM in the presence of M-CSF by Western blot analysis; assay type: functional, cell-based; settings: dose 5-10 µM
[21] = Inhibition of RANKL-induced ERK phosphorylation in C57BL/6 mouse BMDM cells transfected with Nrf2 siRNA at 10 uM incubated for 60 mins by Western blot analysis; assay type: cell-based

Transcription factor p65 (Mus musculus), sequence (Q04207 whole entry): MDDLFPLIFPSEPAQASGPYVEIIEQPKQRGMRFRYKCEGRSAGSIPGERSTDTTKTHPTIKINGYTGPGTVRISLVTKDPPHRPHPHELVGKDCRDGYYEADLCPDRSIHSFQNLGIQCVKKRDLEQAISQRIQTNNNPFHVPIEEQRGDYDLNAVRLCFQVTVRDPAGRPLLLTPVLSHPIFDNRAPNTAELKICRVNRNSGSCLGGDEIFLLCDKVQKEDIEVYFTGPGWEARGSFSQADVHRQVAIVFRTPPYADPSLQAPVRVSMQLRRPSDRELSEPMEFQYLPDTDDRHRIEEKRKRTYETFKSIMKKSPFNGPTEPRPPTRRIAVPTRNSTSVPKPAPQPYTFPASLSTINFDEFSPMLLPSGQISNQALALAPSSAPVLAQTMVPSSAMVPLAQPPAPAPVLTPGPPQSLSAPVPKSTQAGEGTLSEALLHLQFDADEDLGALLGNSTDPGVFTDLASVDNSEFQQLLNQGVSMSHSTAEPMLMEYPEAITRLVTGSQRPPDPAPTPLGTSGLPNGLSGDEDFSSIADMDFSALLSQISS
Kelch-like ECH-associated protein 1 (Mus musculus), sequence (Q9Z2X8 whole entry): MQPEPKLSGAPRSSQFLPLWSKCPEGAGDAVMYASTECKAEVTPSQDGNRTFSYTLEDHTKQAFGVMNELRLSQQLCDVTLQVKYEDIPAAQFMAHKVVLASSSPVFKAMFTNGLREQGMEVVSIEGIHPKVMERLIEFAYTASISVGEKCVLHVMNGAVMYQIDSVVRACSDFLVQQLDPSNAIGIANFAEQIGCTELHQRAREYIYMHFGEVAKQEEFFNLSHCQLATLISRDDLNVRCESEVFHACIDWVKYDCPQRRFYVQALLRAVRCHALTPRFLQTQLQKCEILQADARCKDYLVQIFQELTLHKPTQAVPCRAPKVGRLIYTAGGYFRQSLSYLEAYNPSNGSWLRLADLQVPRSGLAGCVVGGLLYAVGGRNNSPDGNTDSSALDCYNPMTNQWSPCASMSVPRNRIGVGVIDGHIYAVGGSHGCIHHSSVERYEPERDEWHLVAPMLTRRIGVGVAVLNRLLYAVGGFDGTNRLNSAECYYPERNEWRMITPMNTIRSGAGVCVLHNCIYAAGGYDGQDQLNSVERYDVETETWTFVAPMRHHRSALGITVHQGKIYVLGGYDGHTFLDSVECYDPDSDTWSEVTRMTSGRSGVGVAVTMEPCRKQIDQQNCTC
Kelch-like ECH-associated protein 1, sequence (Q14145 whole entry): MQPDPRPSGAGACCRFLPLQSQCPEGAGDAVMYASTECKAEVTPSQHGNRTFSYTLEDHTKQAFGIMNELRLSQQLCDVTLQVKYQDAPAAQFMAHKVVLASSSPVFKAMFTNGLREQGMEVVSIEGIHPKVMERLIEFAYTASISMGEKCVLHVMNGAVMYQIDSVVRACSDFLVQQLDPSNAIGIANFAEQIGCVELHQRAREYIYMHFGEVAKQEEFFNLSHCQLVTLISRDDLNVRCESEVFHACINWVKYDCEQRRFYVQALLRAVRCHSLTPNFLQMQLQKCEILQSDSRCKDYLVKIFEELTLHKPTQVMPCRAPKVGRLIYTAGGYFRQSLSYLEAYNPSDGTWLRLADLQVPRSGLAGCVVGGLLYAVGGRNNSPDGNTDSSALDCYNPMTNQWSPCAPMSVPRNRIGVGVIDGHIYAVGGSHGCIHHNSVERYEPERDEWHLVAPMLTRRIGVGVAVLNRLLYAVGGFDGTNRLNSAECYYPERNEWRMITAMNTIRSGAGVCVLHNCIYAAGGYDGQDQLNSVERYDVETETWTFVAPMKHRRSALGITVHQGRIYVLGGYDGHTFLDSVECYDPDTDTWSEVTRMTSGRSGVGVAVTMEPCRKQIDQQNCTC
Keap1/Nrf2 (Homo sapiens), sequence (Q14145 whole entry, looked up, the tested form may be a part): as the sequence (Q14145 whole entry) above
Keap1/Nrf2 (Homo sapiens), sequence (Q16236 whole entry, looked up, the tested form may be a part): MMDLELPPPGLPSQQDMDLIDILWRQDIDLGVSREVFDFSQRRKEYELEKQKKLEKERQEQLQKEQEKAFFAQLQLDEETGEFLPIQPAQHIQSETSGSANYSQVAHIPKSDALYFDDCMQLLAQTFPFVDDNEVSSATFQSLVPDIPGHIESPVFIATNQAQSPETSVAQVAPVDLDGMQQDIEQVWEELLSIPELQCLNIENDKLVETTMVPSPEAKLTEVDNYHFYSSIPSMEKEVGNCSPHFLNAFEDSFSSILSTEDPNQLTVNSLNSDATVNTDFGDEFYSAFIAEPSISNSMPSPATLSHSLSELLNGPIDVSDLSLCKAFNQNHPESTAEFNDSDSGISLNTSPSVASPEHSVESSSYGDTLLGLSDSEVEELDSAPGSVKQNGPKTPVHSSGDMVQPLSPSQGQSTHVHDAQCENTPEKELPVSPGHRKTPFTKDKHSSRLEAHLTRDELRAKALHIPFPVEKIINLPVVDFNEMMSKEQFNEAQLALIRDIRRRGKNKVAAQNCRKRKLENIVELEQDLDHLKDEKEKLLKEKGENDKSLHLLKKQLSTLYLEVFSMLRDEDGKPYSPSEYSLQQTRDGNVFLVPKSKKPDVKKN

For `C=C1[C@H]2O[C@]3([C@@H](C)C(=O)O[C@H]3[C@H]1Cl)[C@@H](OC(C)=O)[C@H]1[C@]3(CC[C@H](OC(C)=O)[C@]1(C)[C@@H](OC(C)=O)[C@@H]2OC(C)=O)CO3`, the inhibition [1] was “inactive”, the Activity (BMDM [2]) was “Active” and the inhibition (BMDM [3]) was “Active”. For the same compound, the Activity [4] was “Active”, the Activity [5] was “Active” and the Activity (Danio rerio) was “Active”. For the same compound, the Activity (BMDM [6]) was “Active”, the Activity (BMDM [7]) was “Active” and the inhibition [8] was “inactive”. The inhibition [9] was “Active”, the Activity (BMDM [10]) was “Dose-Dependent Effect” and the Activity (BMDM [11]) was “Active”. The Activity [12] was “Active”, the Activity (RAW264.7 [13]) was “inactive” and the Activity (BMDM [14]) was “inactive”. The Kd [15] was 6.4 µM, the inhibition [16] was “Active” and the inhibition [17] was “Active”. For the same compound, the Activity (RAW264.7 [18]) was “inactive”, the Activity (BMDM [19]) was “Active” and the Activity (BMDM [20]) was “Active”. For the same compound, the inhibition [21] was “inactive”.

Reference: ChEMBL document CHEMBL5331068, “Briarane-type diterpenoids, the inhibitors of osteoclast formation by interrupting Keap1-Nrf2 interaction and activating Nrf2 pathway” (Eur J Med Chem, 2023)
